Measurements reported in patent publication US20230272357A1, “METHODS OF GENOME EDITING INCLUDING CONTROLLED OPENING OF CHROMATIN” (Wisconsin Alumni Research Foundation, priority 2021, published 2023).

Test system: on-target and top off-target sites of HIST1H2BJ-GFP, AAVS1 S10, EMX1
Assay: Off-target analysis of edited iPSCs (CHANGE-seq/GUIDE-seq sites, rhAmpSeq)
Type: cell-based, human
Method: Genome-wide, off-target analysis: Genomic DNA from iPSCs was isolated using Gentra® Puregene® Kit (Qiagen) according to the manufacturer's instructions. CHANGE-seq was performed as described in the art. Briefly, purified genomic DNA was tagmented with a custom Tn5-transposome to an average length of 400 bp, followed by gap repair with Kapa HiFi HotStart Uracil+DNA Polymerase (KAPA Biosystems) and Taq DNA ligase (NEB). Gap-repaired tagmented DNA was treated with USER™ enzyme (NEB) and T4 polynucleotide kinase (NEB). Intramolecular circularization of the DNA was performed with T4 DNA ligase (NEB) and residual linear DNA was degraded by a cocktail of exonucleases containing Plasmid-Safe ATP-dependent DNase (Lucigen), Lambda exonuclease (NEB), and Exonuclease I (NEB). In vitro cleavage reactions were performed with 125 ng of exonuclease-treated circularized DNA, 90 nM of SpCas9 protein (NEB), NEB buffer 3.1 (NEB) and 270 nM of sgRNA, in a 50 μL volume. Cleaved products were A-tailed, ligated with a hairpin adaptor (NEB), treated with USER™ enzyme (NEB), and amplified by PCR with barcoded universal primers NEBNext® Multiplex Oligos for Illumina® (NEB), using Kapa HiFi Polymerase (KAPA Biosystems). Libraries were quantified by qPCR (KAPA Biosystems) and sequenced with 151 bp paired-end reads on an Illumina® NextSeq instrument. CHANGE-seq data analyses were performed using open-source CHANGE-seq analysis software.
To determine the indel frequency at CHANGE-seq-identified off-target sites, on and off-target sites for were amplified from iPSC genomic DNA obtained using rhAmpSeg™ system (IDT), and sequencing libraries were generated according to the manufacturer's instructions. Sequencing was then performed with 150-bp paired-end reads on an Illumina® Miniseq instrument. Analysis was performed using CRISPAltRations: IDT rhAmpSeq CRISPR analysis tool.
Highly sensitive genome-wide, off-target analysis for our TSA-based editing strategy was assayed by CHANGE-seq at HIST1H2BJ-GFP site, which yielded a frequency distribution of the potential off-target sites (FIG. 3A,B). Top 12 off-target sites were amplified from genomic DNA using the rhAmp-Seq system (IDT) and subsequently sequenced using the Illumina® MiniSeq™ system. Sequencing data was then analyzed using the CRISPAltRations tool, which allowed for quantitative analysis of observed indel mutations (data not shown). […] Furthermore, the highest normalized on-target edit ratio was obtained for TSA concentration of 6.25 ng/mL, representative of the optimal TSA concentration for generating gene editing iPSCs.

[1] = HIST1H2BJ-GFP, AAVS1 S10, EMX1, with TSA concentration, FIG. 3C-E

Q: How did the “TSA concentration giving highest normalized on-target edit ratio” value (AAVS1 S10 and EMX1 loci) turn out when `CC(/C=C/C(=O)NO)=C\[C@@H](C)C(=O)c1ccc(N(C)C)cc1` [TSA, Trichostatin A] was run?
A: Its value is 6.25 ng/mL.

Q: What about the “TSA concentration giving highest normalized on-target edit ratio” value (HIST1H2BJ-GFP site) of the same molecule?
A: The value was 6.25 ng/mL.

Q: What about the “TSA concentration giving highest normalized on-target edit ratio” value (HIST1H2BJ-GFP, AAVS1 S10, EMX1, FIG. 3C-E) of the same molecule?
A: Its value is 6.25 ng/mL.

Q: What about the Off-target indel % [1] of the same molecule?
A: Its Off-target indel % is “remains the same”.

Q: And the On-target indel % [1]?
A: Its On-target indel % is “increases”.

Q: And the “Indel % at off-target sites” value (top 12 off-target sites of HIST1H2BJ-GFP, upon TSA treatment)?
A: The value was “did not increase”.

Q: What about the “Indel % at off-target sites” value (top off-target sites for AAVS1 S10 and EMX1 loci) of the same molecule?
A: The value was “no significant increase”.
